Data as given in patent US20060052341A1, “Control of a biological function” (priority 2002, published 2006).
Where two headings read alike, the source gives them in different places.

Columns and labels:
in vivo = conditions: female, cattle
Text: In the urine, up to 30% of an administered dose appears as a conjugate of glucuronic acid and pregnanediol.

[1] = cited from earlier work
[2] = rat, in vivo; cited from earlier work
[3] = 24 mg controlled release implants, non-pregnant heifers; cited from earlier work
[4] = Serum oestradiol after intravaginal release of oestradiol 17β/cyclodextrin tablets; oestradiol half life; type: in vivo, cattle
Description: However, oestradiol benzoate is only one of the preferred oestrogen component of the present invention.
For the purpose of the present invention as exampled via the control of oestrus in cattle, release of oestrogen tablets into the vagina was carefully timed and recorded. […] A 1 mg dose produced maximum mean values of 130-180 pg/ml at 100-130 minutes after treatment, while a 2 mg dose led to maxima of 180 to >250 pg at 120-150 minutes.
A 1 mg dose produced maximum mean values of 130-180 pg/ml at 100-130 minutes after treatment, while a 2 mg dose led to maxima of 180 to >250 pg at 120-150 minutes, as illustrated in FIG. 11.

[5] = prior art, cited from earlier work
[6] = within 6 hours of ingesting 1.5 g, human subjects; cited from earlier work
cattle = experiment: Luteolysis studies with intravaginal sodium cloprostenol; type: in vivo
Description: In effecting the desired delivery regime for the present invention as directed to use in controlling bestrus in cattle, a number of studies were conducted. […] There is no reliable blood test for sodium cloprostenol. The best test is to assess the success of luteolysis following application of sodium cloprostenol.

dairy cows = conditions: seven hundred and thirty seven dairy cows, three years; cited from earlier work
[7] = treated cows; cited from earlier work
[8] = 1 mg oestradiol benzoate by intramuscular injection
[9] = vaginal administration of 10 mg oestradiol benzoate
[10] = 1 mg dose, intravaginal tablet with cyclodextrin carrier
[11] = 7.2 mg oestradiol 17β intravaginally

CC(=O)[C@H]1CC[C@H]2[C@@H]3CCC4=CC(=O)CC[C@]4(C)[C@H]3CC[C@]12C [progesterone]
half-life (in vivo): ~20 min
half-life of progesterone in blood ([1]; in vivo): only a few minutes
LD100 [2]: 327.1 mg/kg

C[C@]12CC[C@@H]3c4ccc(O)cc4CC[C@H]3[C@@H]1CC[C@@H]2O [oestradiol]
oestrogen levels in tissues of slaughtered animals [3]: not significantly different from untreated animals

C[C@]12CC[C@@H]3c4ccc(OC(=O)c5ccccc5)cc4CC[C@H]3[C@@H]1CC[C@@H]2O [oestradiol benzoate, oestra-1,3,5 (10)-triene-3,17β-diol 3-benzoate]
half life ([4]; bovine, in vivo): longer than two to three minutes
peak plasma oestradiol concentration [5, 8]: 8 to 13 pg/mL
time of peak plasma oestradiol [5, 8]: approximately 2 hours
peak plasma oestradiol concentration [5, 9]: 2 to 5 pg/mL
time of peak plasma oestradiol [5, 9]: 2 to 48 h

OCc1ccccc1 [benzyl alcohol]
dose eliminated in the urine as hippuric acid [6]: 75% to 85%

C[C@]12CC[C@@H]3c4ccc(O)cc4CC[C@H]3[C@@H]1CC[C@@H]2O [oestradiol 17β, oestra-1,3,5 (10)-triene-3,17β-diol]
maximum mean serum oestradiol [4, 10]: 130 to 180 pg/mL
time of maximum serum oestradiol after treatment [4, 10]: 100 to 130 min
time of maxima of serum oestradiol ([4]; 2 mg dose, intravaginal tablet with cyclodextrin carrier): 120 to 150 min
time for serum oestradiol to reach peak values from basal levels ([4]; intravaginal oestrogen tablets): 2 to 3 h
half life ([4]; oestradiol without the benzoate component): only a few minutes
peak plasma oestradiol concentration ([5]; 7.2 mg oestradiol 17β intravaginally with cyclodextrin): 10 to 20 pg/mL
duration of elevated plasma levels [5, 11]: at least 24 hours
time of peak plasma oestradiol [5, 11]: four

O=C(O)CCC/C=C\CC1C(O)CC(O)C1/C=C/C(O)COc1cccc(Cl)c1 (stereo not drawn) [sodium cloprostenol, cloprostenol sodium]
response to treatment compared with prior art intramuscular injection of prostaglandin alone (cattle; HPβCD carrier, increased dose rate): equivalent response
luteolytic effect (cattle; intravaginal, without a suitable carrier, at the level dosed): not having a complete luteolic effect
luteolytic effect (cattle; same dose administered with HPβCD): incomplete luteolysis
side effects on subsequent fertility (dairy cows): no chronic side effects on subsequent fertility

CCCCC[C@H](O)/C=C/[C@@H]1[C@@H](C/C=C\CCCC(=O)O)[C@@H](O)C[C@H]1O [prostaglandin PGF2α, prostaglandin F2α]
half-life ([1]; rapid breakdown): a few minutes
half-life in the blood [7]: three
